From patent US8277860B2, “Method of stabilizing 1,4-dihydroxy-2-naphthoic acid” (Meiji Co., Ltd., priority 2003, dated 2012) come the findings set out here.

A short description of data set [1]: Nitrogen gas substitution test: DHNA content during preservation of DHNA-containing vegetable drink. The data set is classed as physicochemical. The settings on record: vegetable drink with ascorbic acid; nitrogen bubbled until dissolved oxygen 5 ppm; pasteurized 140° C. 3 seconds; ordinary temperature (25° C.) preservation, 2 months. The protocol:
(§1) A 5 ml portion of each sample was passed through a solid phase extraction column (Oasis HLB, manufactured by Waters Corporation) conditioned with 5 ml of methanol and 4 ml of 1% (w/v) sodium ascorbate aqueous solution. After washing with 5 ml of an aqueous solution of 1% (w/v) sodium ascorbate and elution with 4 ml of an aqueous solution of 10% (w/v) sodium ascorbate/methanol (1:9), the thus obtained eluate was concentrated under reduced pressure. A 1 ml portion thereof was sampled and filled up with the aforementioned sodium ascorbate-containing methanol. The mixture was filtered through a 0.5 μm filter and subjected to HPLC (column: Cadenza CD-C18 (4.6×150 mm, manufactured by Imtact Corporation), mobile phase: acetonitrile, methanol, water and acetic acid (10:20:200:0.1, vol/vol/vol/vol, adjusted to pH 7 with aqueous ammonia), detector: UV detector, detection wavelength: 254 nm, flow rate: 1.5 ml/min, column temperature: 45° C., sample injection: 20 μl). A calibration curve was prepared by preparing a 1 mg/ml (methanol solution) standard stock solution of a DHNA preparation (046-22422, manufactured by Wako Pure Chemical Industries, Ltd.) and using the solution after optionally diluting with methanol. […]

Data set [2] in a line: Nitrogen gas substitution test: DHNA content during preparation and preservation of DHNA-containing plain yogurt. The data set is classed as physicochemical. The protocol: as §1, with “μl).” for “μl). A calibration curve was prepared by preparing a 1 mg/ml (methanol solution) standard stock solution of a DHNA preparation (046-22422, manufactured by Wako Pure Chemical Industries, Ltd.) and using the solution after optionally diluting with methanol.”
The DHNA content contained in the plain yogurt was measured in accordance with the aforementioned test example, at respective steps of before pasteurization of the mix, after pasteurization of the same, just after inoculation of the bulk starter and completion of the fermentation, and after the lapse of the preservation for 1 week and 2 weeks, according to the production of plain yogurt of this Example.

For `O=C(O)c1cc(O)c2ccccc2c1O` [DHNA, 1,4-dihydroxy-2-naphthoic acid], the “reduction of the DHNA content during preservation” value in data set [1] is listed as “can be inhibited for a prolonged period of time”. Moreover, in data set [2] (control plain yogurt mix without nitrogen gas bubbling (dissolved oxygen about 10 ppm), heating at 95° C. for 5 minutes), the “DHNA content after heat pasteurization in comparison with the content before heat pasteurization” value is “about 30%”. Besides, the “loss of DHNA during the preparation and preservation” value in data set [2] (plain yogurt mix bubbled with nitrogen gas (dissolved oxygen less than 1 ppm), pasteurized 95° C. 5 minutes, fermented 43° C. 4 hours, preserved in the dark at 10° C. for 2 weeks) is given as “almost completely inhibited”.
